According to patent US20030036184A1 (priority 2000, published 2003):

Columns and labels:
Test in all cases: PDE assay for IC50 measurements (SPA, cell lysate enzyme)
Type in all cases: biochemical
[1] = biological target: T1, PDE7(101-450) (Homo sapiens, UniProt Q13946); settings: PDE7(101-450)
T1 construct: made in house; host or cells: CHO (EcRCHO) cells, transient transfection; crude lysate supernatant
Experimental: (§1) The cell lysates containing PDE7A1 (full length or the truncated forms) were used as enzyme source. PDE assays were performed in 96-well plates in a final volume of […] at pH 8 comprising: 2 μL of compound dissolved in DMSO at 8 different concentrations, 40 mM TRIS, 10 mM MgCl2, 50 nM [^3H]-cAMP (Amersham) and enzyme at the appropriate concentration. Plates were incubated for 10 min at 37° C. in a heater/shaker and stopped by addition of 20 μL Yttrium silicate beads (Scintillation Proximity Assay, Amersham). Enzyme activity was read on a Topcount reader (Packard). Substrate depletion never exceeded 15% of the initial amount. The given IC50s represent the concentration of compound leading to 50% inhibition of the cAMP hydrolysis versus control. They are calculated using a classical sigmoidal model with Hill slope fixed to 1.
(§2) The cell lysates containing recombinant PDE7A1 (full length or the truncated forms) were used as enzyme source. PDE assays were performed in 96-well plates in a final volume of 100 μL at pH 8 comprising: […] of compound dissolved in DMSO at 8 different concentrations, 40 mM TRIS, 10 mM MgCl2, 50 nM [^3H]-cAMP and enzyme at the appropriate concentration.
(§3) Plates were incubated for 10 min at 37° C. in a heater/shaker and stopped by addition of 20 μL Yttrium silicate beads (Scintillation Proximity Assay, Amersham).
(§4) Enzyme activity was determined by measuring the radioactivity on a Topcount reader (Packard).
(§5) Substrate depletion never exceeded 15% of the initial amount. The given IC50s represent the concentration of compound leading to 50% inhibition of the cAMP hydrolysis versus control. They are calculated using a classical sigmoidal model with Hill slope

[2] = biological target: T2, PDE7(101-483) (Homo sapiens, UniProt Q13946)
T2 construct: this catalytic fragment (101-482) fragment was co-expressed; made in house; host or cells: CHO (EcRCHO) cells, transient transfection; crude lysate supernatant
Experimental: as §1, §2, §3, §4, §5

[3] = biological target: T3, recombinant full length PDE7A1 (Homo sapiens, UniProt Q13946); settings: recombinant full length PDE7A1
T3 construct: the full length PDE7A1 protein (1-483); made in house; host or cells: CHO (EcRCHO) cells, transient transfection, cytosol/lysate supernatant; Sf21/baculovirus also described
Experimental: as §1, §2, §3, §4, §5

Measured: IC50

T3 sequence (Q13946 whole entry): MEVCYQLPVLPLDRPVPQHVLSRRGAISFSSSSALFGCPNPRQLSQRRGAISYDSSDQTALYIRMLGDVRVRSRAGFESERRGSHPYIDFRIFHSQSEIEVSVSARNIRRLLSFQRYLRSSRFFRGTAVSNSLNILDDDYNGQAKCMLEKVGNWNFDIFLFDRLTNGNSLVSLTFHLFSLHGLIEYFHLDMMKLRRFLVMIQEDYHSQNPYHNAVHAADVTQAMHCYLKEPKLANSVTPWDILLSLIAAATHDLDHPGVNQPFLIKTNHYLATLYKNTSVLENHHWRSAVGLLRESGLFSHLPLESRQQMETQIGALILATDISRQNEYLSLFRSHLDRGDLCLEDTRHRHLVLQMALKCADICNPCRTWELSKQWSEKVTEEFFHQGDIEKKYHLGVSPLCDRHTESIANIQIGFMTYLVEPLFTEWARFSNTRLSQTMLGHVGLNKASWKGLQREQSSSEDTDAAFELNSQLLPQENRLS
T1 sequence (Q13946 101-450): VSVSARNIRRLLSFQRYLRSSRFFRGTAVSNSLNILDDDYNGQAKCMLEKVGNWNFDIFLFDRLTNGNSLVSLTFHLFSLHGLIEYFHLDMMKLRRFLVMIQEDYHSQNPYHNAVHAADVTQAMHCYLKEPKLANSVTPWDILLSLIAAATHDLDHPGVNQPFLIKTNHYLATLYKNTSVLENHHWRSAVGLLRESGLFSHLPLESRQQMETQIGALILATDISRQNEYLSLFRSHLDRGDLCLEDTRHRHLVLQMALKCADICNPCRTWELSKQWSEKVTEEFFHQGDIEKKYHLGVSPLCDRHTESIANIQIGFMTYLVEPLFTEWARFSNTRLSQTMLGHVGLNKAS
T2 sequence (Q13946 101-482): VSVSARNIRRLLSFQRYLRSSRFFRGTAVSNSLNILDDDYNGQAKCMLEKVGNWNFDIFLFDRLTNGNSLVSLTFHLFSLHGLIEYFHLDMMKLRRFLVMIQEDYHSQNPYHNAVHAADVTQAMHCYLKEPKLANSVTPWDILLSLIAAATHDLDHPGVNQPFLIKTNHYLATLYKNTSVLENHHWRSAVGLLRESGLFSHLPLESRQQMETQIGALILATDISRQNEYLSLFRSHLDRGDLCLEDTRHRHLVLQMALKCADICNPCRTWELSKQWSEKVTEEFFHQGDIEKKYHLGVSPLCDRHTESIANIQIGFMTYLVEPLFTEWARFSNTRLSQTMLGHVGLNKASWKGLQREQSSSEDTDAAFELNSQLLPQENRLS

CC(C)Cn1c(=O)n(C)c(=O)c2[nH]cnc21 [IBMX, 3 isobutyl-1-methyl xanthine]
13 to 14 µM: all assays above
